Columns and labels:
patients with PBC = settings: Nevens et al. 2016; cited from earlier work
subjects with PBC [1] = experiment: Phase 2 double-blind placebo-controlled study: change from baseline in serum ALP; type: in vivo, human; settings: for treatment effect estimate vs placebo, relative change in serum ALP (supportive analysis): ANCOVA with baseline ALP as covariate; for treatment effect estimate vs placebo, relative change in serum ALP (primary analysis): non-parametric randomization-based ANCOVA with baseline ALP as covariate, p<0.001; for mean relative change (%) from baseline to Endpoint in serum ALP: 12-week treatment, placebo 3.2%
Procedure: (§1) The study was a Phase 2, double-blind, randomized, parallel group, placebo-controlled study, designed to evaluate the efficacy and safety of elafibranor at doses of 80 mg or 120 mg daily vs placebo in an adult PBC population. This study projected to randomize approximately 45 subjects to 3 treatment groups in a 1:1:1 ratio (elafibranor 80 mg, elafibranor 120 mg, or placebo).
(§2) Subject participation was planned to be a maximum of 20 weeks. The study was comprised of 3 periods: a Screening Period, a Treatment Period, and a Follow-up Period. The Screening Period (Week −4 to Week −1) preceded the 12-week double-blind Treatment Period.
A decrease in ALP levels is recognized as a particularly relevant surrogate marker for the treatment of PBC. Consequently the primary endpoint of the study is to evaluate the efficacy of elafibranor 80 mg or 120 mg with respect to relative change from baseline in serum ALP levels compared to placebo.

subjects with PBC [2] = experiment: Phase 2 study: pruritus (itching) domain of PBC-40 quality of life questionnaire; type: in vivo, human; settings: for median absolute change from baseline to Endpoint in the pruritus/itching domain of PBC-40: placebo 0.0; for median relative change from baseline to Endpoint in the pruritus/itching domain of PBC-40: placebo 0%; for mean absolute change from baseline to Endpoint in the pruritus (itching) domain of PBC-40: placebo 2.1
Procedure: as §1, §2

subjects with PBC [3] = experiment: Phase 2 study: tolerability and safety (TEAEs, pruritus worsening); type: in vivo, human; settings: for percentage of subjects reporting TEAEs (Treatment-Emergent Adverse Events): placebo 80.0%
Procedure: as §1, §2
The tolerability and safety of once-per-day oral administration of elafibranor in 80-mg and 120-mg doses in subjects with PBC was assessed as follows: • Physical examination • Vital signs • Medical history • ECG • Hematological parameters • Liver markers • Other biochemical safety parameters

subjects with PBC [4] = experiment: Phase 2 study: change from baseline in pruritus visual analogue scale (VAS); type: in vivo, human; settings: for median relative change from baseline to Endpoint in the pruritus VAS: placebo −7.1%
Procedure: as §1, §2
Considering that pruritus is a preeminent adverse event in subjects with PBC, assessment of pruritus was also considered. More specifically, the change from baseline in pruritus (through 5D-itch scale (measuring the degree, duration, direction [improvement or worsening], disability [effect on daily activities], and distribution of itching) and visual analogue scale for pruritus (VAS).
The 5D-itch scale is a reliable, multidimensional measure of itching that has been validated in patients with chronic pruritus to detect changes over time (Elman S, et al., The 5-D itch scale: a new measure of pruritus. Br J Dermatol. 2010; 162(3):587-593.). The VAS is a reliable and validated method of pruritus assessment (Reich A, et al., Visual analogue scale: evaluation of the instrument for the assessment of pruritus. Acta Derm Venereol.2012; 92(5):497-501).
Pruritus scoring values and absolute changes from baseline are provided for each domain of the 5D-itch scale (duration, degree, direction, disability, and distribution) and for the VAS by subject and by visit; baseline and Endpoint values are flagged in this listing; total scores at each visit are also summarized in this listing.

[5] = 80 mg and 120 mg treatment groups

For CC[C@H]1[C@@H](O)[C@@H]2[C@H](CC[C@]3(C)[C@@H]([C@H](C)CCC(=O)O)CC[C@@H]23)[C@@]2(C)CC[C@@H](O)C[C@@H]12 [OCA, obeticholic acid], the pruritus adverse event (patients with PBC) is given as “severe pruritus has been reported”.

For CSc1ccc(C(=O)C=Cc2cc(C)c(OC(C)(C)C(=O)O)c(C)c2)cc1 [elafibranor, 2-(2,6-dimethyl-4-{3-[4-(methylsulfanyl)phenyl]-3-oxopropen-1-yl}phenoxy)-2-methylpropanoic acid], the “change from baseline in serum ALP vs placebo at Endpoint (significance)” value (subjects with PBC [1]; [5]) was “statistically significantly different from placebo”, the “mean ALP values from baseline through Week 12 (trend)” value (subjects with PBC [1]; 80 mg and 120 mg treatment groups, 12 week study) was “declining mean ALP values” and the “treatment effect estimate vs placebo, relative change in serum ALP (supportive analysis)” value (subjects with PBC [1]; 80 mg, 95% CI [−63.3, −39.5]) was −51.4%. For the same compound, the “treatment effect estimate vs placebo, relative change in serum ALP (primary analysis)” value (subjects with PBC [1]; 80 mg, 95% CI [−62.5, −41.5]) was −52.0%, the “treatment effect estimate vs placebo, relative change in serum ALP (supportive analysis)” value (subjects with PBC [1]; 120 mg, 95% CI [−55.8, −31.9]) was −43.9% and the “treatment effect estimate vs placebo, relative change in serum ALP (primary analysis)” value (subjects with PBC [1]; 120 mg, 95% CI [−55.7, −32.1]) was −43.9%. For the same compound, the “mean relative change (%) from baseline to Endpoint in serum ALP” value (subjects with PBC [1]; elafibranor 80 mg daily oral) was −48.3%, the “mean relative change (%) from baseline to Endpoint in serum ALP” value (subjects with PBC [1]; elafibranor 120 mg daily oral) was −40.6% and the “median absolute change from baseline to Endpoint in the pruritus/itching domain of PBC-40” value (subjects with PBC [2]; 80 mg) was −1.0. The “median relative change from baseline to Endpoint in the pruritus/itching domain of PBC-40” value (subjects with PBC [2]; 80 mg) was −25.0%, the “mean absolute change from baseline to Endpoint in the pruritus (itching) domain of PBC-40” value (subjects with PBC [2]; 80 mg) was −0.9 and the “median absolute change from baseline to Endpoint in the pruritus/itching domain of PBC-40” value (subjects with PBC [2]; 120 mg) was −1.0. The “median relative change from baseline to Endpoint in the pruritus/itching domain of PBC-40” value (subjects with PBC [2]; 120 mg) was −20.8%, the “mean absolute change from baseline to Endpoint in the pruritus (itching) domain of PBC-40” value (subjects with PBC [2]; 120 mg) was −4.1 and the “safety and tolerability in patients” value (subjects with PBC [3]; 80 mg and 120 mg) was “safe and well-tolerated”. For the same compound, the worsening of pruritus (subjects with PBC [3]; 80 mg and 120 mg) was “no worsening of pruritus”, the “percentage of subjects reporting TEAEs (Treatment-Emergent Adverse Events)” value (subjects with PBC [3]; 80 mg) was 80.0% and the “percentage of subjects reporting TEAEs (Treatment-Emergent Adverse Events)” value (subjects with PBC [3]; 120 mg) was 86.7%. The “median pruritus VAS from baseline through Week 12 (trend)” value (subjects with PBC [4]; [5]) was “declining median VAS as early as Week 2”, the “median relative change from baseline to Endpoint in the pruritus VAS” value (subjects with PBC [4]; 80 mg) was −23.7% and the “median relative change from baseline to Endpoint in the pruritus VAS” value (subjects with PBC [4]; 120 mg) was −49.5%.

Reference: US20230052189A1, “TREATMENT OF PRIMARY BILIARY CHOLANGITIS WITH ELAFIBRANOR” (Genfit, priority 2020, published 2023)
